Reference: US20240009211A1, “PHARMACEUTICAL COMPOSITION FOR TREATMENT OF LUNG CANCER COMPRISING CANNABIDIOL AND ANTICANCER AGENT AS ACTIVE INGREDIENTS, AND USE THEREOF” (NEOCANNBIO CO., LTD., priority 2022, published 2024)

Legend:
A549 cells [1] = experiment: Anti-cancer agents with or without CBD, WST-8 cell survival; type: cell-based; settings: A549, 48 h
Protocol: (§1) After completion of culture, 1/10 of WST-8 solution (Quanti-Max™, BIOMAX, Korea) was added to the medium, and after additional culture at 37° C. for 1 hour, the cell survival rate was determined by measuring absorbance at 450 nm, and expressed as a percentage of the control without any treatment. The experiment was conducted independently and repeated three times.

A549 cells [2] = experiment: Cancer cell toxicity of CBD, WST-8 cell survival; type: cell-based; settings: Homo sapiens, A549, 48 h
Protocol: as §1, with “Specifically, A549 cells, a lung cancer cell line, were seeded in 96-well plates at a concentration of 1×10^4 cells/well, cultured in a 37° C., 10% CO2 incubator for 24 hours, then treated with CBD in a concentration-dependent manner and cultured under the same conditions for 48 hours. After” for “After”

A549 cells [3] = experiment: Western blotting of apoptosis- and autophagy-related proteins after combined treatment; type: cell-based; settings: A549, 24 h, etoposide combined with CBD (15 μM)
Protocol: After completion of culture, the cells were harvested and the proteins were quantified using the bradford assay (Bio-Rad, japan), and the proteins (30 ug/well) were separated by electrophoresis on NuPAGE 4-12% Bis-Tris gels (Invitrogen) and transferred to polyvinylidene difluoride (PVDF). Next, the PVDF membrane was reacted with a primary antibody (Monoclonal antibody, Cell signaling technology, USA) specific for PARP[Poly (ADP-ribose) polymerase], cleaved caspase9, cleaved caspase8, LC3B or GAPDH for 1 hour at room temperature, followed by reacting with an anti-rabbit secondary antibody (Cell signaling technology) for 1 hour. The antibodies bound to PVDF were visualized using ECL Advance Western Blotting Detection Reagents (GE Healthcare, UK) and LAS 4000 imaging system (Fujifilm, Japan).

A549 cells [4] = experiment: Apoptosis by Fluorescence Activated Cell Sorting (FACS); type: cell-based; settings: A549, combined treatment of etoposide and CBD compared to individual treatment
Source text: In addition, the apoptosis results of the combination treatment were re-validated using a Fluorescence Activated Cell Sorting (FACS) system.

A549 cells [5] = experiment: cells; settings: Homo sapiens, A549, 48 h
[6] = Homo sapiens, read-out: IC50 (μM), with CBD (15 μM)
[7] = Homo sapiens, read-out: IC50 (μM), without CBD
[8] = etoposide concentration-dependent

Structure (SMILES) | IC50 (A549 cells [1]; [6]) [µM] | IC50 (A549 cells [1]; [7]) [µM] | further results
CNC(=O)c1cc(Oc2ccc(NC(=O)Nc3ccc(Cl)c(C(F)(F)F)c3)cc2)ccn1 [Sorafenib] | 4.26 | 8.97 | –
C=C(C)[C@@H]1CCC(C)=C[C@H]1c1c(O)cc(CCCCC)cc1O [CBD, 2-[(1R,6R)-3-methyl-6-prop-1-en-2-ylcyclohex-2-en-1-yl]-5-pentylbenzene-1,3-diol] | – | – | IC50 (A549 cells [2]): 18.6 µM
COc1cc2nccc(Oc3ccc(NC(=O)C4(C(=O)Nc5ccc(F)cc5)CC4)cc3)c2cc1OC [Cabozantinib (XL184), Cabozantinib] | 4.14 | 8.29 | –
COc1cc([C@@H]2c3cc4c(cc3[C@@H](O[C@@H]3O[C@@H]5CO[C@@H](C)O[C@H]5[C@H](O)[C@H]3O)[C@H]3COC(=O)[C@H]23)OCO4)cc(OC)c1O [Etoposide (VP-16), etoposide] | 51.4 | – | expression of Bcl-2 protein (A549 cells [3]): decreased; expression of autophagy-related protein LC3-II (A549 cells [3]): increased; expression of Bax protein (A549 cells [3]; [8]): increased; expression of cleaved PARP protein (A549 cells [3]; [8]): increased; expression of cleaved caspase8 protein (A549 cells [3]; [8]): increased; expression of cleaved caspase9 protein (A549 cells [3]; [8]): increased; number of early apoptotic cells (A549 cells [4]): significantly increased; IC50 (A549 cells [5]; read-out: cytotoxicity (IC50) of etoposide alone): 106 µM; IC50 (A549 cells [5]; read-out: cytotoxicity (IC50) of etoposide upon combined treatment with CBD): 51.4 µM
N.N.O=C([O-])C1(C(=O)[O-])CCC1.[Pt+2] [Carboplatin] | – | – | IC50 (A549 cells [1]; read-out: IC50 (μM), 48 h, with CBD, with CBD (15 μM)): > 100 µM
CCC1=C[C@@H]2CN(C1)Cc1c([nH]c3ccccc13)[C@@](C(=O)OC)(c1cc3c(cc1OC)N(C)[C@H]1[C@@](O)(C(=O)OC)[C@H](OC(C)=O)[C@]4(CC)C=CCN5CC[C@]31[C@@H]54)C2 [Vinorelbine] | 6.38 | 12.4 | –
COc1cc2nccc(Oc3ccc(NC(=O)NC4CC4)c(Cl)c3)c2cc1C(N)=O [Lenvatinib] | 16.9 | 19.9 | –
CNC(=O)c1cc(Oc2ccc(NC(=O)Nc3ccc(Cl)c(C(F)(F)F)c3)c(F)c2)ccn1 [Regorafenib] | 4.11 | 5.27 | –
